Laboratory results from ChEMBL document CHEMBL1128151, “Synthesis and bioactivities of heterocyclic lipids as PAF antagonists. 2” (Bioorg Med Chem Lett, 1995).

Tests used:
Cavia porcellus [1] = experiment: In vivo PAF-induced bronchoconstriction in guinea pigs at a dose of 0.01 mg/kg; type: functional
Cavia porcellus [2] = experiment: In vivo inhibitory activity against platelet aggregation in guinea pigs; type: functional, organism-based
Mus musculus [3] = experiment: Survival ratio of ICR mice by the administration (0.3 mg/kg) along with endotoxin (55mg/Kg, ip) after 18 h; type: functional
Mus musculus [4] = experiment: Survival ratio of ICR mice by the administration (0.3 mg/kg) along with endotoxin (55mg/Kg, ip) after 1 hr; type: functional
Mus musculus [5] = experiment: Survival ratio of ICR mice by the administration (0.3 mg/kg) along with endotoxin (55mg/Kg, ip) after 42h; type: functional
Mus musculus [6] = experiment: Survival ratio of ICR mice by the administration (0.3 mg/kg) along with endotoxin (55mg/Kg, ip) after 66h; type: functional
Mus musculus [7] = experiment: Survival ratio of ICR mice by the administration (0.3 mg/kg) along with endotoxin (55mg/Kg, ip) after 24 hr; type: functional
Mus musculus [8] = experiment: Survival ratio of ICR mice by the administration (0.3 mg/kg) along with endotoxin (55mg/Kg, ip) after 2 hr; type: functional
Mus musculus [9] = experiment: Survival ratio of ICR mice by the administration (0.3 mg/kg) along with endotoxin (55mg/Kg, ip) after 48 hr; type: functional
Rattus norvegicus = experiment: In vivo inhibitory activity against PAF-induced hypertension in SD rats by ip administration; type: functional
Cavia porcellus [10] = experiment: In vivo inhibitory activity against PAF-induced bronchoconstriction in guinea pigs at a dose of 0.01 mg/kg; type: functional
Mus musculus [11] = experiment: In vivo inhibitory activity (1 mg/kg) against endotoxin-induced hemoconcentration in ICR mice with endotoxin concentration of 55 mg/kg; type: functional
[12] = In vitro inhibitory activity against PAF-induced aggregation of rabbit platelets

| Structure (SMILES) | Absolute (Cavia porcellus [1]) | ED50 (Rattus norvegicus) | inhibition in vivo at 0.01 mg/kg (Cavia porcellus [10]) | Change (Mus musculus [11]) | Change of hemoconcentration (Mus musculus [11]) | further results |
| --- | --- | --- | --- | --- | --- | --- |
| CCCCCCCCCCCCCCCCNC(=O)OC[C@@H]1C[C@@H](COC(=O)N(Cc2cccc[n+]2CC)C(C)=O)S1.[Cl-] | 7% | 0.16 mg/kg | 92% |  |  | IC50 (Cavia porcellus [2]): 21 nM; Survival ratio (Mus musculus [3]): 80; Survival ratio (Mus musculus [4]): 100; Survival ratio (Mus musculus [5]): 60; Survival ratio (Mus musculus [6]): 60; Survival ratio (Mus musculus [7]): 73; Survival ratio (Mus musculus [8]): 100; Survival ratio (Mus musculus [9]): 60 |
| CCCCCCCCCCCCCCCCCCNC(=O)OC[C@H]1C[C@H](COC(=O)N(Cc2cccc[n+]2CC)C(C)=O)C1.[I-] | 12% | 0.58 mg/kg | 87% |  |  | IC50 (Cavia porcellus [2]): 56 nM; Survival ratio (Mus musculus [3]): 80; Survival ratio (Mus musculus [4]): 100; Survival ratio (Mus musculus [5]): 40; Survival ratio (Mus musculus [6]): 27; Survival ratio (Mus musculus [7]): 73; Survival ratio (Mus musculus [8]): 100; Survival ratio (Mus musculus [9]): 33 |
| CCCCCCCCCCCCCCCCCCNC(=O)OC[C@H]1C[C@H](COC(=O)N(Cc2cccc[n+]2CC)C(C)=O)O1.[I-] | 7% | 0.28 mg/kg | 92% |  |  |  |
| CCCCCCCCCCCCCCCCCCNC(=O)OC[C@H]1C[C@H](COC(=O)N(Cc2cccc[n+]2CC)C(C)=O)N1C(C)=O.[Cl-] | 5% | 0.33 mg/kg | 95% |  |  | IC50 (Cavia porcellus [2]): 29 nM; Survival ratio (Mus musculus [3]): 73; Survival ratio (Mus musculus [4]): 100; Survival ratio (Mus musculus [5]): 53; Survival ratio (Mus musculus [6]): 53; Survival ratio (Mus musculus [7]): 73; Survival ratio (Mus musculus [8]): 100; Survival ratio (Mus musculus [9]): 53 |
| CCCCCCCCCCCCCC(=O)OC(CCCCCCCCCCC)CC(=O)O[C@@H]1[C@@H](NC(=O)CC(CCCCCCCCCCC)OC(=O)CCCCCCCCCCC)[C@H](O[C@@H]2C[C@H](OC(=O)CC(O)CCCCCCCCCCC)[C@@H](NC(=O)CC(O)CCCCCCCCCCC)[C@@H](O)O2)O[C@H](CO)[C@H]1OP(=O)(O)O.CCCCCCCCCCCCCCCCCCNC(=O)OC[C@H]1C[C@H](COC(=O)N(Cc2cccc[n+]2CC)C(C)=O)C1.[I-] (stereo partly specified) |  |  |  | 25% | 5.9 |  |
| CCCCCCCCCCCCCC(=O)OC(CCCCCCCCCCC)CC(=O)OC1C(NC(=O)CC(CCCCCCCCCCC)OC(=O)CCCCCCCCCCC)C(OC2CC(OC(=O)CC(O)CCCCCCCCCCC)C(NC(=O)CC(O)CCCCCCCCCCC)C(O)O2)OC(CO)C1OP(=O)(O)O.CCCCCCCCCCCCCCCCCCNC(=O)OC[C@@H]1C[C@@H](COC(=O)N(Cc2cccc[n+]2CC)C(C)=O)N1C(C)=O.[Cl-] (stereo unspecified) |  |  |  | 55% | 13.1 |  |
| CCCCCCCCCCCCCC(=O)OC(CCCCCCCCCCC)CC(=O)OC1C(NC(=O)CC(CCCCCCCCCCC)OC(=O)CCCCCCCCCCC)C(OC2CC(OC(=O)CC(O)CCCCCCCCCCC)C(NC(=O)CC(O)CCCCCCCCCCC)C(O)O2)OC(CO)C1OP(=O)(O)O.CCCCCCCCCCCCCCCCNC(=O)OC[C@@H]1C[C@@H](COC(=O)N(Cc2cccc[n+]2CC)C(C)=O)S1.[Cl-] (stereo unspecified) |  |  |  | 53% | 12.7 |  |
| CCCCCCCCCCCCCC(=O)OC(CCCCCCCCCCC)CC(=O)OC1C(NC(=O)CC(CCCCCCCCCCC)OC(=O)CCCCCCCCCCC)C(OC2CC(OC(=O)CC(O)CCCCCCCCCCC)C(NC(=O)CC(O)CCCCCCCCCCC)C(O)O2)OC(CO)C1OP(=O)(O)O.CCCCCCCCCCCCCCCCCCNC(=O)OC[C@H]1C[C@H](COC(=O)N(Cc2cccc[n+]2CC)C(C)=O)O1.[I-] (stereo unspecified) |  |  |  | 53% | 12.7 |  |
| CCCCCCCCCCCCCC(=O)OC(CCCCCCCCCCC)CC(=O)OC1C(NC(=O)CC(CCCCCCCCCCC)OC(=O)CCCCCCCCCCC)C(OC2CC(OC(=O)CC(O)CCCCCCCCCCC)C(NC(=O)CC(O)CCCCCCCCCCC)C(O)O2)OC(CO)C1OP(=O)(O)O (stereo unspecified) |  |  |  | 100% | 24 |  |
| C[C@@H]1C(=O)O[C@H]2C(O)[C@@]34[C@H]5C[C@@H](C(C)(C)C)[C@]36[C@@H](OC(=O)[C@@H]6O)O[C@@]4(C(=O)O5)[C@@]12O (single isomer, unassigned) [GINKOLIDE B] |  |  |  |  |  | IC50 [12]: 418 nM |
| CCCCCCCCCCCCCCCCCCNC(=O)OCC(COC(=O)N(Cc1cccc[n+]1CC)C(C)=O)OC.[Cl-] (stereo unspecified) [CV-6209] | 12% | 0.35 mg/kg | 87% | 48% |  |  |
